In patent US20190037899A1, “Intramolecular Trans-Sialidase” (THE INSTITUTE OF FOOD RESEARCH, priority 2016, published 2019):
Several values for one entry are separate records, joined by “and”; a condition that tells them apart may be missing. Identical values can stand only once. Marks after values point to notes of the source that are not given here.

What was measured:
[1] = tested on: AkmNan0625 and AkmNan1835; assay: Specificity of AkmNan0625 and AkmNan1835 against sialylated oligosaccharides (HPAEC-PAD); type: biochemical, Akkermansia muciniphila; set-up: key to Activity, AkmNan0625 and AkmNan1835: +: Activity was defined as disappearance of the substrate peak and appearance of a lower molecular weight peak which could correspond to the desialylated substrate; conditions: for Activity, AkmNan0625 and AkmNan1835: 1 mM substrate, 1 nM enzyme, 37° C., pH 6.5, overnight
From the text: All chemicals were obtained from Sigma (St. Louis, US) unless otherwise stated. The Akkermansia muciniphila sialidases, termed here AkmNan0625 and AkmNan1835, were obtained by His-Tag overexpression of their genes (Amuc_0625 and Amuc_1835, respectively (van Passel, M. W. et al. The genome of Akkermansia muciniphila, a dedicated intestinal mucin degrader, and its use in exploring intestinal metagenomes. Plos One 6, e16876 (2011)) in E. coli BL21(DE3) and subsequent purification to homogeneity by immobilised metal affinity chromatography (IMAC) as described below. The sialylated oligosaccharides and OC were obtained from Carbosynth (Berks, UK).

RgNanH [2] = assay: Specificity of RgNanH against sialylated oligosaccharides (HPAEC-PAD); type: biochemical, Ruminococcus gnavus ATCC 29149; set-up: key to Activity, RgNanH: +: Activity was defined as disappearance of the substrate peak and appearance of a lower molecular weight peak which could correspond to the desialylated substrate; conditions: for Activity, RgNanH: 1 mM substrate, 1 nM enzyme, 37° C., pH 6.5, overnight
RgNanH [3] = assay: Kinetic analysis of RgNanH with sialylated substrates; conditions: 37° C., pH 6.5; for Ki: read-out: Ki (substrate inhibition)
Description: For 4MU-Neu5Ac and 3′SL, the rate of hydrolysis without enzyme was not significant so raw data were used. However, for pNP-Neu5Ac the rate of hydrolysis without enzyme was significant so the rate with enzyme was corrected by the subtraction of the rate without enzyme at each concentration of substrate.
Kinetic data were obtained from at least duplicate (usually triplicate) experiments, and the kinetic parameters were calculated by fitting the initial raw data to the Michaelis-Menten equation using a non-linear regression analysis program (Prism 6, GraphPad, San Diego, USA), error bars (standard error of the mean) are shown.

[4] = target: T1, Ruminococcus gnavus ATCC 29149 sialidase RgNanH (intramolecular trans-sialidase, IT-sialidase), wild type, full length excluding signal sequence residues 1-25, (Mediterraneibacter gnavus, UniProt A7B557); conditions: 37° C., pH 6.5
T1 sequence (A7B557 26-723): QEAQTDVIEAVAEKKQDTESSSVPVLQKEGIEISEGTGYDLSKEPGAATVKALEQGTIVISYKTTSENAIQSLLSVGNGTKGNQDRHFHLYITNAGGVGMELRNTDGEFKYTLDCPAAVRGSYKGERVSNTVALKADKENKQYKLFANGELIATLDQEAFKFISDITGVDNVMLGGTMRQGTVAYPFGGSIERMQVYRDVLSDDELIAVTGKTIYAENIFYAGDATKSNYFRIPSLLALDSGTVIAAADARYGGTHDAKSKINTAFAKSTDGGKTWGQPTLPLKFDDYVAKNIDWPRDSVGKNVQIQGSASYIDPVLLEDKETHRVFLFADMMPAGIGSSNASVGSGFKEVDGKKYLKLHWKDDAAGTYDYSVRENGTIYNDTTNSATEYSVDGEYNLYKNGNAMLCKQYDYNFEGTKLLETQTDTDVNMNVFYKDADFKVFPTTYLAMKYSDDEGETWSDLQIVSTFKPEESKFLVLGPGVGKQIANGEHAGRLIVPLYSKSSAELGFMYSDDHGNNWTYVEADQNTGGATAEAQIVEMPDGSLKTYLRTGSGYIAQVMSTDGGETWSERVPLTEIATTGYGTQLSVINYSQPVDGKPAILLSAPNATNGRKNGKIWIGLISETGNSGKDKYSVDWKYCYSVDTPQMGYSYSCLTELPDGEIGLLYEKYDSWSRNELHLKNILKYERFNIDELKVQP
Description: (§1) Substrate (a) 4MU-Neu5Ac or (b) PNP-Neu5Ac was incubated with RgNanH (0.22 mM and 0.43 nM respectively) at 37° C., pH 6.5 and the release of product measured using a plate-reader. (c) Inhibition of RgNanH (1.00 nM) incubated with 4MU-Neu5Ac (0.51 mM) by zanamivir (●), Neu5Ac2en (▪), Siastatin B (▴) and oseltamivir carboxylate (♦), the rates are normalised to a % of the uninhibited rate. [I] is the inhibitor concentration. (d) 3′SL was incubated with RgNanH (2.25 nM) and the release of product measured by HPAEC-PAD. Experiments were done at least in duplicate (usually triplicate) and the error bars show the standard error of the mean.

RgNanH [5] = target: T2, RgNanH (Mediterraneibacter gnavus, UniProt A7B557); assay: Inhibition of RgNanH activity against 4MU-Neu5Ac by neuraminidase inhibitors; conditions: for Inhibition of RgNanH (in words): 4MU-Neu5Ac 0.51 mM, 1 nM enzyme, Neu5Ac 0-0.3 mM, Lac 0-1.5 mM
T2 sequence (A7B557 26-723): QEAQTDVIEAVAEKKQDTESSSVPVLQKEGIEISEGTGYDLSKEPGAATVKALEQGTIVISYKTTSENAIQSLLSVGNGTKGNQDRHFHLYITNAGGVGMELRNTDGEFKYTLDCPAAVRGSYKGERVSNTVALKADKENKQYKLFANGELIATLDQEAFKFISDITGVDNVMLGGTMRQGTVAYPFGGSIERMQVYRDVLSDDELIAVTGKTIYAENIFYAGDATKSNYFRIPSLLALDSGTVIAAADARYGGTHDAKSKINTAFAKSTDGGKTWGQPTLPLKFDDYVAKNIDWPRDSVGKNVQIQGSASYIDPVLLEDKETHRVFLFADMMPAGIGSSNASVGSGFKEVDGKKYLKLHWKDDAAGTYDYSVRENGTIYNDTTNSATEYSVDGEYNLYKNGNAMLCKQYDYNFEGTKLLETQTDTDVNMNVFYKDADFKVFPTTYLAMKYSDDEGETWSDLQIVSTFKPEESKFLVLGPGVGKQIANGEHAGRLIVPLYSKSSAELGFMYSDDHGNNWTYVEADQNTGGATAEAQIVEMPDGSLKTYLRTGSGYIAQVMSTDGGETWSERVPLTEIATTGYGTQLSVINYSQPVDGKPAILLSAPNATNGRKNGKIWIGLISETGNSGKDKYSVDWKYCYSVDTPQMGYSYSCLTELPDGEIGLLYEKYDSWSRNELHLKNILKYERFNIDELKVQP

RgNanH [6] = target: T2, RgNanH; conditions: 1 mg/ml glycoprotein, 37° C., pH 6.5, overnight
Description: Extracts (400 μL) were mixed with 200 μL of D2O and 20 μL of a solution of D2O containing 1 mM of TSP (sodium 3-(trimethylsilyl)-propionate-d4). Samples (500 μL) were transferred into a 5-mm NMR tube for spectral acquisition. The ^1H NMR spectra were recorded at 600 MHz on a Bruker Avance spectrometer (Bruker BioSpin GmbH, Rheinstetten, Germany) running Topspin 2.0 software and fitted with a cryoprobe and a 60-slot autosampler. Each ^1H NMR spectrum was acquired with 128 scans, a spectral width of 8,012.8 Hz, an acquisition time of 2.04 s, and a relaxation delay of 2.0 s. The “noesypr1d” presaturation sequence was used to suppress the residual water signal with a low-power selective irradiation at the water frequency during the recycle delay and a mixing time of 100 ms. Spectra were transformed with a 0.3-Hz line broadening, manually phased, baseline corrected, and referenced by setting the TSP methyl signal to 0 ppm.

[7] = substrate: CC(=O)N[C@H]1[C@H]([C@H](O)[C@H](O)CO)O[C@@](Oc2ccc3c(C)cc(=O)oc3c2)(C(=O)O)C[C@@H]1O; assay: purified protein, by the assay type; conditions: other: 37° C., pH 6.5, * estimated value, ± standard error of the mean
Description: as §1

[8] = * estimated value, ± standard error of the mean

CO[C@@H]1O[C@H](CO)[C@@H](O[C@@H]2O[C@H](CO)[C@H](O)[C@H](O[C@]3(C(=O)O)C[C@H](O)[C@@H](NC(C)=O)[C@H]([C@H](O)[C@H](O)CO)O3)[C@H]2O)[C@H](O[C@@H]2O[C@@H](C)[C@@H](O)[C@@H](O)[C@@H]2O)[C@H]1NC(C)=O [3′ sialyl Lewis X methyl glycoside, Neu5Ac-α-2-3-Gal-β-1-4-[Fuc-a-1-3]-GlcNAc-β-OMe]
Activity, AkmNan0625 and AkmNan1835 [1]: + | Activity, RgNanH (RgNanH [2]): +

CC(=O)N[C@H]1[C@H]([C@H](O)[C@H](O)CO)O[C@@](O[C@H]2[C@@H](O)[C@@H](CO)O[C@@H](O[C@H]3[C@H](O[C@@H]4O[C@@H](C)[C@@H](O)[C@@H](O)[C@@H]4O)[C@@H](O)C(O)O[C@@H]3CO)[C@@H]2O)(C(=O)O)C[C@@H]1O (stereo partly drawn) [3′ sialyl-3-fucosyllactose, Neu5Ac-α-2-3-Gal-β1-4-[Fuc-α-1-3]-Glc]
Activity, AkmNan0625 and AkmNan1835 [1]: + | Activity, RgNanH (RgNanH [2]): +

CC(=O)NC1C(O)CC(OC2C(O)C(O)OC(CO)C2O)(C(=O)O)OC1C(O)C(O)CO (stereo not drawn) [3′ sialylgalactose, Neu5Ac-α-2-3-Gal]
Activity, AkmNan0625 and AkmNan1835 [1]: + | Activity, RgNanH (RgNanH [2]): +

CC(=O)N[C@H]1[C@H]([C@H](O)[C@H](O)CO)O[C@@](O[C@H]2[C@@H](O)[C@@H](CO)O[C@@H](O[C@H]3[C@H](O[C@@H]4O[C@@H](C)[C@@H](O)[C@@H](O)[C@@H]4O)[C@@H](NC(C)=O)C(O)O[C@@H]3CO)[C@@H]2O)(C(=O)O)C[C@@H]1O (stereo partly drawn) [3′-sialyl Lewis X, Neu5Ac-α-2-3-Gal-β-1-4-[Fuc-a1-3]-GlcNAc]
Activity, AkmNan0625 and AkmNan1835 [1]: + | Activity, RgNanH (RgNanH [2]): +

CC(=O)N[C@H]1[C@H]([C@H](O)[C@H](O)CO)O[C@@](O[C@H]2[C@@H](O)[C@@H](CO)O[C@@H](O[C@H]3[C@H](O)[C@@H](O)C(O)O[C@@H]3CO)[C@@H]2O)(C(=O)O)C[C@@H]1O (stereo partly drawn) [3′SL, Neu5Ac-α-2-3-Gal-β-1-4-Glc]
Activity of AkmNan0625 and AkmNan1835 on substrate (in words) [1]: active | Activity, AkmNan0625 and AkmNan1835 [1]: + | KM (RgNanH [3]): below detection limit | Km (RgNanH [3]): < 100 µM | Vmax (RgNanH [3]): 0.0566 ± 0.0057 µM/min | kcat (RgNanH [3]): 25.7 min⁻¹ and 25.70 min⁻¹ | Ki (RgNanH [3]): 760 µM | KM [4, 8]: below detection limit | Km [4, 8]: < 100 µM | kcat/KM ([4]; ** calculated using estimated value): >>2.57 × 10^2** min^−1 · mM^−1 | Activity, RgNanH (RgNanH [2]): +

CC(=O)N[C@H]1[C@H]([C@H](O)[C@H](O)CO)O[C@@](Oc2ccc3c(C)cc(=O)oc3c2)(C(=O)O)C[C@@H]1O [4MU-Neu5Ac, 2′-(4-Methylumbelliferyl)-α-D-N-acetylneuraminic acid]
Km (RgNanH [3]): 590 µM | kcat (RgNanH [3]): 6210 min⁻¹ | Ki (RgNanH [3]): 2370 µM

CC(=O)N[C@H]1[C@H]([C@H](O)[C@H](O)CO)OC(OC[C@H]2OC(O)[C@H](O)[C@@H](O)[C@H]2O)(C(=O)O)C[C@@H]1O (stereo partly drawn) [6′ sialylgalactose, Neu5Ac-α-2-6-Gal]
Activity, AkmNan0625 and AkmNan1835 [1]: +

OC[C@H]1O[C@@H](O[C@H]2[C@H](O)[C@@H](O)C(O)O[C@@H]2CO)[C@H](O)[C@@H](O)[C@H]1O (some centres unmarked) [Lactose]
Inhibition of RgNanH (in words) (RgNanH [5]): not inhibited

CC(=O)NC1C(O)C=C(C(=O)O)OC1C(O)C(O)CO [Neu5Ac2en, 2-deoxy-2,3-didehydro-D-N-acetylneuraminic acid]
IC50 (RgNanH [5]; IC50, Table 2, substrate 4MU-Neu5Ac 0.51 mM, RgNanH 1.00 nM): 1410 µM | IC50 (RgNanH [5]; IC50, substrate 4MU-Neu5Ac): 1400 µM

CC(=O)N[C@H]1[C@H]([C@H](O)[C@H](O)CO)OC(O)(C(=O)O)C[C@@H]1O (some centres unmarked) [Neu5Ac, N-Acetylneuraminic acid]
Inhibition of RgNanH (in words) (RgNanH [5]): not inhibited

CC(=O)NC1C(O)CC(Oc2ccc([N+](=O)[O-])cc2)(C(=O)O)OC1C(O)C(O)CO [PNP-Neu5Ac, 2-O-(p-Nitrophenyl)-α-D-N-acetylneuraminic acid]
KM (RgNanH [3]): high | Km (RgNanH [3]): > 25000 µM | kcat (RgNanH [3]): <152** min^−1

CC(=O)N[C@H]1[C@H]([C@H](O)[C@H](O)CO)O[C@@](Oc2ccc([N+](=O)[O-])cc2)(C(=O)O)C[C@@H]1O [PNP-Neu5Ac, 2-O-(p-Nitrophenyl)-α-D-N-acetylneuraminic acid]
KM [4, 8]: high KM

CC(=O)N[C@H]1NC[C@H](C(=O)O)[C@H](O)[C@@H]1O [Siastatin B]
IC50 (RgNanH [5]; Table 2, substrate 4MU-Neu5Ac 0.51 mM, RgNanH 1.00 nM): 4.87 µM

CC(=O)N[C@H]1[C@H]([C@H](O)[C@H](O)CO)OC(C(=O)O)=C[C@@H]1N=C(N)N [Zanamivir, 4-guanidino-Neu5Ac2en]
IC50 (RgNanH [5]; substrate 4MU-Neu5Ac): 11900 µM

Neu5Ac-α-2-3-Gal-β-1-4-GlcNAc [3′-α-sialyl-N-acetyllactosamine]
Activity, AkmNan0625 and AkmNan1835 [1]: + | Activity, RgNanH (RgNanH [2]): +

Neu5Ac-α-2-6-Gal-β1-4-Glc [6′SL]
Activity of AkmNan0625 and AkmNan1835 on substrate (in words) [1]: active | Activity, AkmNan0625 and AkmNan1835 [1]: + | Enzymatic activity of RgNanH on substrate (in words) (RgNanH [2]): no enzymatic activity

Neu5Ac-α-2-6-Gal-β-1-4-GlcNAc [6′-α-sialyl-N-acetyllactosamine]
Activity, AkmNan0625 and AkmNan1835 [1]: +

asialo-fetuin
Activity of RgNanH against glycoprotein (2,7-anhydro-Neu5Ac peaks by 1H NMR) (RgNanH [6]): no change

B1: Ruminococcus gnavus ATCC 29149 sialidase RgNanH (intramolecular trans-sialidase, IT-sialidase), wild type, full length excluding signal sequence residues 1-25, … (protein)
chain: QEAQTDVIEAVAEKKQDTESSSVPVLQKEGIEISEGTGYDLSKEPGAATVKALEQGTIVISYKTTSENAIQSLLSVGNGTKGNQDRHFHLYITNAGGVGMELRNTDGEFKYTLDCPAAVRGSYKGERVSNTVALKADKENKQYKLFANGELIATLDQEAFKFISDITGVDNVMLGGTMRQGTVAYPFGGSIERMQVYRDVLSDDELIAVTGKTIYAENIFYAGDATKSNYFRIPSLLALDSGTVIAAADARYGGTHDAKSKINTAFAKSTDGGKTWGQPTLPLKFDDYVAKNIDWPRDSVGKNVQIQGSASYIDPVLLEDKETHRVFLFADMMPAGIGSSNASVGSGFKEVDGKKYLKLHWKDDAAGTYDYSVRENGTIYNDTTNSATEYSVDGEYNLYKNGNAMLCKQYDYNFEGTKLLETQTDTDVNMNVFYKDADFKVFPTTYLAMKYSDDEGETWSDLQIVSTFKPEESKFLVLGPGVGKQIANGEHAGRLIVPLYSKSSAELGFMYSDDHGNNWTYVEADQNTGGATAEAQIVEMPDGSLKTYLRTGSGYIAQVMSTDGGETWSERVPLTEIATTGYGTQLSVINYSQPVDGKPAILLSAPNATNGRKNGKIWIGLISETGNSGKDKYSVDWKYCYSVDTPQMGYSYSCLTELPDGEIGLLYEKYDSWSRNELHLKNILKYERFNIDELKVQP
Km [7]: 590 ± 170 µM | Vmax [7]: 1.37 µM/min | kcat [7]: 104 s⁻¹ | kcat/Km [7]: 175000 M⁻¹ s⁻¹
